Patent US20200345689A1, “METHODS AND CO[…] RRx-001 FOR RADIOPROTECTION” (EpicentRx, Inc., priority 2018, published 2020)

Columns and labels:
CD2F1 male mice = experiment: 30-day survival following lethal total body irradiation; type: in vivo
Experimental: In this Example, the effects of systemic administration of RRx-001 on survival in response to a lethal dose of radiation was assayed in mice. CD2F1 male mice 9.5-11 weeks old were administered a single dose of RRx-001 by intraperitoneal (IP) injection 24 hours prior to a lethal radiation dose. 24 mice received 10 mg/kg RRx-001 (formulated in 5% DMSO in sterile H2O) and 24 mice received the vehicle control (5% DMSO in sterile H2O only).
The mice were subjected to total body irradiation (TBI) with 9.35 Gy (LD70/30) at 0.6 Gy/min using High-level Cobalt-60. Unanesthetized mice were placed in well-ventilated Plexiglas restrainers and irradiated bilaterally. Sham-irradiated mice were also placed in identical Plexiglas restrainers and kept in a room shielded from irradiation at the same time. In each experiment, the dose to the abdominal cores of the animals was delivered at a dose rate of approximately 0.6 Gy/min. Dosimetry was performed prior to the irradiation of the animals using the highly accurate alanine/electron spin resonance (ESR) dosimetry system (American Society for Testing and Materials, Standard E 1607) to measure dose rates (to water) in the cores of acrylic mouse phantoms, which were located in the compartments of the exposure rack. A calibration curve based on standard alanine calibration dosimeters provided by the National Institute of Standards and Technology (NIST, Gaithersburg, Md.) was used to measure the doses. The accuracy of the dose rate calibrations has been verified several times using the services of the National Physics Laboratory (UK National Standards Laboratory, London, UK) and the M.D. Anderson Cancer Center (Houston, Tex.). The corrections applied to the measured dose rates in the phantoms were for a small difference in the Co-60 energy between the mass energy-absorption coefficients for soft tissue and water, as well as source decay. The radiation field was uniform within ±1.2%.
Mice were monitored at least twice a day for 30 days post-irradiation. During the critical period (days 10-20), mice were monitored at least three times a day with no more than 10 hours between observations. Mice displaying any signs of discomfort received food in their cage as a wet mash. Mice displaying overt dyspnea, weight loss, lethargy, or other markers of moribundity and appearing to be in distress were humanely euthanized in a separate room using carbon dioxide gas followed by cervical dislocation after breathing stopped as a confirmatory method of euthanasia. This experiment was repeated for a total of n=24 mice per group.
Survival curves were estimated using the Kaplan-Meier method and were compared using a two-sided log-rank test at the 0.05 significance level. P-values were considered statistically significant if less than 0.05.

[1] = system: NAD(P)H Dehydrogenase [Quinone] 1 (NQO-1); experiment: Western blot of ARE protein expression in hMSC: NQO-1; type: cell-based, human; conditions: 5 mM RRx-001 for 16 hours, all groups
Experimental: (§1) Antioxidant response element (ARE) genes such as heme oxygenase 1 (HO-1), NAD(P)H Dehydrogenase [Quinone] 1 (NQO-1) and Superoxide Dismutase (SOD) are involved in the detoxification and elimination of reactive oxidants.
(§2) Expression of ARE proteins was assayed in hMSC, macrophages, and monocytes following in vitro irradiation of the cells, which were pretreated with RRx-001 or vehicle. Protein expression was assayed by Western blotting and protein quantification.
(§3) hMSC were treated for 16 hours with […] RRx-001 or the vehicle control (0.05% DMSO), irradiated at 10 Gy or sham-irradiated and the protein collected 8 or 24 hours post-sham or irradiation. Human monocytic leukemic THP-1 and U937 cells were differentiated into macrophages with 50 nM Phorbol 12-myristate 13-acetate (PMA) for 24 hours before treatment. Differentiated and non-differentiated cells were treated with […] RRx-001 or 0.05% DMSO (vehicle control) for 16 hours prior to radiation. The cells were irradiated at 5 Gy or sham-irradiated and collected 4-8 hours later for both analysis. For each experiment, duplicates of each sample were run.

SOD1 and 2 = experiment: Western blot of ARE protein expression in hMSC: SOD1 and 2; type: cell-based, human; conditions: 5 mM RRx-001 for 16 hours, 8 hours after 10 Gy irradiation
Experimental: as §1, §2, §3

superoxide dismutase = experiment: Superoxide dismutase activity assay in hMSC; type: cell-based, human; conditions: 5 mM RRx-001 for 16 hours, 8 hours after 10 Gy irradiation
Experimental: The activity of superoxide dismutase activity was also assayed in hMSC. hMSC were treated for 16 hours with […] RRx-001 or vehicle, irradiated at 10 Gy or sham-irradiated and whole cell homogenate collected according to the manufacture's protocol. The assay measures the activity of all three forms of SOD. The amount of SOD activity (U/mL) was normalized to protein levels.

[2] = system: male Syrian Golden Hamsters; experiment: Oral mucositis induced by acute radiation in hamsters; type: in vivo
Experimental: In this example, the ability of RRx-001 to treat oral mucositis induced by acute radiation was assess in hamsters.
(§4) Fifty-six (56) male Syrian Golden Hamsters were used in the study. Mucositis was induced by administering an acute radiation dose of 40 Gy directed to the left buccal cheek pouch on Day 0 at a rate of 2-2.5 Gy/min. Mucositis was evaluated clinically starting on Day 6 and continuing on alternate days until Day 28. Hamsters reaching a mucositis severity score of 4 or higher received buprenorphine (0.5 mg/kg) SC twice a day for 48 hours or until score dropped below 4.
(§5) Dosing was scheduled as follows: for animals in Groups 1-4, animals were dosed with RRx-001 (1, 3, or 10 mg/kg) or vehicle (1:2 DMA:PEG400 vol:vol ratio) once a day (QD) on Days −4, −1, 1, 4, 7, 11, 14, 18, 21, and 25 via intraperitoneal (IP) administration; animals in Groups 5-7 were dosed QD with RRx-001 (1, 3, or 10 mg/kg) on Days −4, −1, 1, 8, 15, and 22.
The significance of differences observed between the control and treatment group was evaluated by comparing the days with mucositis scores≥3 and <3 between groups using chi-square analysis. […] The percentage of animal days with a score of ≥3 in the Vehicle Group was 57.29%. […] There were numerous days where animals dosed with RRx-001 had percent ulceration days that were lower (which can be interpreted as ameliorative of disease severity) in comparison to vehicle-dosed animals.
An analysis of the severity of mucositis was performed using the Mann-Whitney rank sum analysis to compare the visual mucositis scores for the treatment group to the Vehicle control group on each day of evaluation. In this analysis, 2 days of significant reduction in the mucositis score are generally required before it is regarded as meaningful.

[3] = Tolerability and body weight in the hamster mucositis study; type: in vivo, hamsters
Experimental: as §4, §5
Dosing of all other groups continued as scheduled. Upon study conclusion, on Day 28, Animals were euthanized via CO2 inhalation and death was confirmed by monitoring heartbeat in accordance with USDA guidelines.

[4] = 10 mg/kg 24 hours prior to lethal TBI, vs vehicle control

O=C(CBr)N1CC([N+](=O)[O-])([N+](=O)[O-])C1 [RRx-001, 2-bromo-1-(3,3-dinitroazetidin-1-yl)ethan-1-one]
increase in mean survival time (CD2F1 male mice; [4]): 7 days
increase in survival (CD2F1 male mice; [4]): 33.4%
survival times, means±standard errors (CD2F1 male mice; 10 mg/kg IP 24 hours prior to 9.35 Gy TBI, 30-day observation, N=24/group): 27.2 ± 1.1 days
reduction in the 30-day death risk (CD2F1 male mice; one dose of 10 mg/kg IP 24 hours prior to 9.35 Gy (LD70/30) TBI, vs vehicle control irradiated mice): ~33.4%
NQO-1 expression [1]: slightly reduced
SOD1 and 2 expression (SOD1 and 2): slight increase
Superoxide Dismutase Activity (superoxide dismutase): did not increase
percent ulceration (mucositis score ≥3) ([2]; 10 mg/kg, Groups 2 and 5, only dosed on Days −4, −1, and 1): best response in decreasing percent ulceration
percent days of ulceration, twice weekly dosing vs dosing one time per week ([2]; 3 and 1 mg/kg concentrations (Groups 4 vs. Group 7)): more beneficial effects on percent days of ulceration
mean daily mucositis scores ([2]; Group 2: 10 mg/kg IP, dosing terminated after Day 1, 40 Gy to left buccal cheek pouch): modest but significant enhancement of disease healing
percentage of days with a mucositis score of ≥3 in comparison to the Vehicle Group ([2]; Group 2: 10 mg/kg on Days −4, −1, 1, chi-square, p<0.01): statistically lower
mean daily mucositis scores ([2]; all other treatment groups (Groups 3-7: 1, 3 or 10 mg/kg IP)): tracked fairly close to each other, and with Vehicle dosed controls
mucositis scores compared to the Vehicle control group ([2]; animals dosed with 1 mg/kg): multiple days of significant improvement
mucositis scores compared to the Vehicle control group ([2]; animals dosed with 10 mg/kg): multiple days of significant improvement
body weight ([3]; Groups 2 and 5 (10 mg/kg)): lower weights than all other groups
body weight after cessation of dosing ([3]; Groups 2 and 5 (10 mg/kg), in line with other groups by study termination): weight slowly recovered
body weight ([3]; animals other than Groups 2 and 5 (1 and 3 mg/kg), duration of the study): steadily gained weight
tolerability ([3]; highest dose 10 mg/kg IP, Groups 2 and 5, dosing discontinued after Day 1): adverse side effects
